The text below walks through data of patent publication US4714698A, “8-alkylthio-2-piperazino-pyrimido[5,4-d]-pyrimidines” (Dr. Karl Thomae GmbH, priority 1984, dated 1987).

pIC50: −log10 of the molar value.

In data set [1] the target is phosphodiesterase from human thrombocytes. The data set can be described thus: PDE inhibition (PDE assay), phosphodiesterase from human thrombocytes, 3H-cAMP substrate. Conditions: concentration which inhibited PDE activity by 50%, 1 μmol/l 3H-cAMP as substrate, read-out: PDE inhibition ED50, Human thrombocytes. The data set is classed as biochemical. The method, then: Phosphodiesterase was obtained from human thrombocytes by an analogous method.
(§1) The PDE inhibition by the test substances was determined using 1 μmol/1 of ^3 H-cAMP as substrate. The PDE inhibition was determined by measuring the degradation of the substrate ^3 H-cAMP used into ^3 H-AMP by comparison with the control without the test substance. The ^3 H-AMP formed was separated from the remaining ^3 H-cAMP by precipitation with zinc sulphate-barium hydroxide.
(§2) The ED50, i.e. the concentration which inhibited the PDE activity by 50%, was calculated by linear regression analysis.

The test system of data set [2] is phosphodiesterase from B16 melanoma tissue (B16 tumour cells). Description: PDE inhibition (PDE assay), phosphodiesterase from B16 melanoma tissue, 3H-cAMP substrate. The note with it: concentration which inhibited PDE activity by 50%, 1 μmol/l 3H-cAMP as substrate, read-out: PDE inhibition ED50, B16 tumour cells. The data set is classed as biochemical, mice. The protocol: The phosphodiesterase was obtained from B16 melanoma tissue from mice by centrifuging the homogenised tissue at 5000×g (15 minutes at 4° C.). The tissues were homogenized by repeated freezing and thawing and homogenisation according to Potter-Elvehjem or by ultrasound. The homogenised supernatant containing the PDE was deep frozen and stored in batches at -25° C.
as §1, §2

A short description of data set [3]: Tolerability / lethality in mice. Type of data set: in vivo. Conditions: 10 animals. The source says: Moreover, the new compounds are well tolerated.

As to `CSc1ncnc2c(N3CCCC3)nc(N3CCNCC3)nc12` [Substance A, 8-Methylthio-2-piperazino-4-pyrrolidino-pyrimido[5,4-d]pyrimidine], the pIC50 in data set [1] is 5.80; in data set [2], 7.18. Also, the deaths of animals result in data set [3] (20 mg/kg i.v.) and in data set [3] (100 mg/kg p.o.) was “none of the 10 animals used died” in each case.

For the compound `CCN(CC)c1nc(N2CCNCC2)nc2c(SC)ncnc12` [Substance B, 4-Diethylamino-8-methylthio-2-piperazino-pyrimido[5,4-d]pyrimidine], the results for the pIC50 in data set [1] and in data set [2] were 5.89 and 7.43, respectively.

With `CCCCCCNc1nc(N2CCNCC2)nc2c(SC)ncnc12` [Substance C, 4-n-Hexylamino-8-methylthio-2-piperazino-pyrimido[5,4-d]pyrimidine], the pIC50 was 5.92 in data set [1] and 6.92 in data set [2].

Turning to `CSc1ncnc2c(N3CCCCCC3)nc(N3CCNCC3)nc12` [Substance D, 4-Hexamethyleneimino-8-methylthio-2-piperazinopyrimido[5,4-d]pyrimidine], the pIC50 in data set [1] was 5.77; in data set [2] it was 7.55.
